# Results: US6376584B1, “Hydroxy-substituted N-alkoxy hindered amines and compositions stabilized therewith” (Ciba Specialty Chemicals Corporation, priority 1999, dated 2002)
# Where two headings read alike, the source gives them in different places.
# Assay: pKa values by non-aqueous titration (half neutralization potential)
# Format: physicochemical
# Conditions: for HPN: 1:1 acetonitrile:chloroform, 0.1N perchloric acid/dioxane titrant
# Description: In order to determine the pKa values of water insoluble materials, organic references with known pKa values in water are titrated non-aqueously. A plot of the half neutralization potential (HNP) versus the known aqueous pKa value of the reference material is established. The HNP of the test material is determined and extrapolated to find the corresponding pKa value of the test material. Such organic reference materials include 2,2,6,6-tetrarnethylpiperidine; 4-hydroxy-2,2,6,6-tetramethylpiperidine; 1-hydroxyethyl-4-hydroxy-2,2,6,6-tetramethylpiperidine; triacetoneamine and N-methylaniline.
# The reference materials, which are structurally at least peripherally related to the instant test materials and are soluble in both water and 1:1 acetonitrile:chloroform, are used to make a calibration plot in the non-aqueous titration (1:1 acetonitrile:chloroform solvent and 0.1N perchloric acid/dioxane titrant) system. Approximately 0.5 milliequivalents of test material is weighed into a titration beaker. Thirty mL of acetonitrile is added to dissolve the sample. Prior to titration, 30 mL of chloroform is added. Titration is carried out and the HNP is determined. The electrolyte for the reference electrode is 2-(aminomethylpyridine. The electrode is allowed to stand in the solvent system for two hours after filling with the electrolyte to achieve equilibration. All samples are run in duplicate. The pKa values are seen in the table below.
# [1] = extrapolated from HNP versus known aqueous pKa of reference materials, read-out: Calculated pKa
# [2] = pKa of the test hindered amine contained in the formulation, read-out: HALS pKa
# [3] = extrapolated from HNP versus known aqueous pKa of reference materials
SMILES,HPN [mv],pKa [1],pKa [2],Calculated pKa [3]
"CCCCCCCCCCCCCCCCCC(=O)OC1CC(C)(C)N(OCC(C)(C)O)C(C)(C)C1 [Example 73, 1-(2-Hydroxy-2-methylpropoxy)-4-octadecanoyloxy-2,2,6,6-tetramethylpiperidine]",523,3.9,4,
"CCCCCCCCCCCCCCCCCC(=O)OC1CC(C)(C)N(OC2CCCCC2)C(C)(C)C1 [II, 1-cyclohexyloxy-4-ocatadecanoyloxy-2,2,6,6-tetramethylpiperidine]",436,,,4.9
CC(C)(O)CON1C(C)(C)CC(OC(=O)CCCCCCCCC(=O)OC2CC(C)(C)N(OCC(C)(C)O)C(C)(C)C2)CC1(C)C [Example 2],513,,,3.8
"CCCCCCCCON1C(C)(C)CC(OC(=O)CCCCCCCCC(=O)OC2CC(C)(C)N(OCCCCCCCC)C(C)(C)C2)CC1(C)C [TINUVIN® 123, bis(1-octyloxy-2,2,6,6-tetramethylpiperidin-4-yl) sebacate]",,4.6,4.6,
"CC1(C)CC(OC(=O)CCCCCCCCC(=O)OC2CC(C)(C)NC(C)(C)C2)CC(C)(C)N1 [TINUVIN® 770, bis(2,2,6,6-tetramethylpiperidin-4-yl) sebacate]",,,9.1,
